Results on 22 compounds are retold here after patent US8759535B2, “Substituted fused imidazole derivatives, pharmaceutical compositions, and methods of use thereof” (High Point Pharmaceuticals, LLC, priority 2010, dated 2014).

Counter-ions that a name gives are not always drawn.

The test system of the first experiment is HMOX1. Kind of experiment: HMOX1 Protein Assay (immunostaining of HO-1 in NHLF cells, GE InCell 1000). The format is cell-based. The note with it: Homo sapiens, fold change above DMSO treated cells, 3 μM compound (asterisk), 16 h. Put shortly: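 NHLF cells seeded overnight in FGM-2, then exposed to compound or DMSO vehicle for 16 h, fixed, and immunostained for HO-1 with Hoechst nuclear counterstain; imaged on InCell 1000. Values are fold change over DMSO-treated cells, generally at 5 μM (0.8% DMSO), with asterisked entries at 3 μM.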
`CC(O)CCNC(=O)c1ccc2c(c1)nc(Nc1nc3ccc(C(F)(F)F)cc3s1)n2C` (stereo not shown) [Example 216, 1-Methyl-2-(6-trifluoromethyl-benzothiazol-2-ylamino)-1H-benzoimidazole-5-carboxylic acid (3-hydroxy-butyl)-amide]: the fold induction at 3 µM worked out at 31.6.

The compound `C[C@H](NC(=O)c1ccc2c(c1)nc(Nc1nc3ccc(Cl)cc3s1)n2C)C(=O)N(C)C` [Example 462, 2-(6-Chloro-benzothiazol-2-ylamino)-1-methyl-1H-benzoimidazole-5-carboxylic acid ((S)-1-dimethylcarbamoyl-ethyl)-amide] registered a fold induction at 3 µM of 20.

`Cn1c(Nc2nc3ccc(OC(F)(F)F)cc3s2)nc2cc(C(=O)NCCCCN)ccc21` [Example 346, 1-Methyl-2-(6-trifluoromethoxy-benzothiazol-2-ylamino)-1H-benzoimidazole-5-carboxylic acid (4-amino-butyl)-amide hydrochloride]: the fold induction at 3 µM was found to be 12.9.

As for `C[C@H](NC(=O)c1ccc2c(c1)nc(Nc1nc3ccc(Cl)cc3s1)n2C)C(=O)N1CCN(C)CC1` [Example 464, 2-(6-Chloro-benzothiazol-2-ylamino)-1-methyl-1H-benzoimidazole-5-carboxylic acid [(S)-1-methyl-2-(4-methyl-piperazin-1-yl)-2-oxo-ethyl]-amide], the fold induction at 3 µM amounted to 27.2.

The compound `C[C@H](NC(=O)c1ccc2c(c1)nc(Nc1nc3ccc(Cl)cc3s1)n2C)C(=O)N1CCOCC1` [Example 465, 2-(6-Chloro-benzothiazol-2-ylamino)-1-methyl-1H-benzoimidazole-5-carboxylic acid ((S)-1-methyl-2-morpholin-4-yl-2-oxo-ethyl)-amide] came in with a fold induction at 3 µM of 20.4.

For the compound `CN(C)CCCNC(=O)c1ccc2c(c1)nc(Nc1nc3ccc(Cl)cc3s1)n2C` [Example 349, 2-(6-Chloro-benzothiazol-2-ylamino)-1-methyl-1H-benzoimidazole-5-carboxylic acid (3-dimethylamino-propyl)-amide], the fold induction at 3 µM was determined as 29.

The experiment is the same for the next values; noted with them: Homo sapiens, fold change above DMSO treated cells, 5 μM compound, 16 h.
As for `CCNC(=O)c1ccc2c(c1)nc(Nc1nc3ccc(OC(F)(F)F)cc3s1)n2CC(C)C` [Example 165, 1-Isobutyl-2-(6-trifluoromethoxy-benzothiazol-2-ylamino)-1H-benzoimidazole-5-carboxylic acid ethylamide], the fold induction at 5 µM is 17.9.

In the case of `Cn1c(Nc2nc3ccc(Cl)cc3s2)nc2cc(C(=O)NCC(=O)N3CCN(S(C)(=O)=O)CC3)ccc21` [Example 429, 2-(6-Chloro-benzothiazol-2-ylamino)-1-methyl-1H-benzoimidazole-5-carboxylic acid [2-(4-methanesulfonyl-piperazin-1-yl)-2-oxo-ethyl]-amide], the fold induction at 5 µM was 21.4.

`COCCn1c(Nc2nc3ccc(Cl)cc3s2)nc2cc(C(=O)NCCN3CCNC(=O)C3)ccc21` [Example 332, 2-(6-Chloro-benzothiazol-2-ylamino)-1-(2-methoxy-ethyl)-1H-benzoimidazole-5-carboxylic acid [2-(3-oxo-piperazin-1-yl)-ethyl]-amide] registered a fold induction at 5 µM of 55.9.

Compound `COCCn1c(Nc2nc3ccc(Cl)cc3s2)nc2cc(C(=O)NCC(=O)N3CC[C@H](O)C3)ccc21` [Example 405, 2-(6-Chloro-benzothiazol-2-ylamino)-1-(2-methoxy-ethyl)-1H-benzoimidazole-5-carboxylic acid [2-((S)-3-hydroxy-pyrrolidin-1-yl)-2-oxo-ethyl]-amide] returned a fold induction at 5 µM of 21.4.

With `Cn1c(Nc2nc3ccc(OC(F)(F)F)cc3s2)nc2cc(C(=O)NCC(=O)N3CCCCC3CO)ccc21` (stereo not shown) [Example 439, 1-Methyl-2-(6-trifluoromethoxy-benzothiazol-2-ylamino)-1H-benzoimidazole-5-carboxylic acid [2-(2-hydroxymethyl-piperidin-1-yl)-2-oxo-ethyl]-amide], the fold induction at 5 µM stood at 84.2.

`COCC1CCN(C(=O)CNC(=O)c2ccc3c(c2)nc(Nc2nc4ccc(OC(F)(F)F)cc4s2)n3C)CC1` [Example 447, 1-Methyl-2-(6-trifluoromethoxy-benzothiazol-2-ylamino)-1H-benzoimidazole-5-carboxylic acid [2-(4-methoxymethyl-piperidin-1-yl)-2-oxo-ethyl]-amide] yielded a fold induction at 5 µM of 58.4.

`COC(=O)c1ccc2c(c1)nc(Nc1nc3ccc(F)cc3s1)n2C` [Example 112, 2-(6-Fluoro-benzothiazol-2-ylamino)-1-methyl-1H-benzoimidazole-5-carboxylic acid methyl ester] yielded a fold induction at 5 µM of 17.5.

`CCNC(=O)c1cc2nc(Nc3nc4ccc(OC(F)(F)F)cc4s3)n(C)c2cc1OC` [Example 64, 6-Methoxy-1-methyl-2-(6-trifluoromethoxy-benzothiazol-2-ylamino)-1H-benzoimidazole-5-carboxylic acid ethylamide] displayed a fold induction at 5 µM of 18.9.

Take `CCn1c(Nc2nc3ccc(Cl)cc3s2)nc2cc(C(=O)NC)ccc21` [Example 174, 2-(6-Chloro-benzothiazol-2-ylamino)-1-ethyl-1H-benzoimidazole-5-carboxylic acid methylamide]: the fold induction at 5 µM worked out at 26.2.

Regarding `Cn1c(Nc2nc3ccc(OC(F)(F)F)cc3s2)nc2cc(C(=O)NCCOCCNS(C)(=O)=O)ccc21` [Example 276, 1-Methyl-2-(6-trifluoromethoxy-benzothiazol-2-ylamino)-1H-benzoimidazole-5-carboxylic acid [2-(2-methanesulfonylamino-ethoxy)-ethyl]-amide], the fold induction at 5 µM worked out at 61.2.

For the compound `Cc1ccc2nc(Nc3nc4cc(C(=O)O)ccc4n3C)sc2c1` [Example 120, 1-Methyl-2-(6-methyl-benzothiazol-2-ylamino)-1H-benzimidazole-5-carboxylic acid], the fold induction at 5 µM came out at 1.7.

In the case of `COCCNC(=O)c1cnc2c(c1)nc(Nc1nc3ccc(OC(F)(F)F)cc3s1)n2C` [Example 73, 3-Methyl-2-(6-trifluoromethoxy-benzothiazol-2-ylamino)-3H-imidazo[4,5-b]pyridine-6-carboxylic acid (2-methoxy-ethyl)-amide], the fold induction at 5 µM stood at 20.6.

In turn, `CSCCCNC(=O)c1ccc2c(c1)nc(Nc1nc3ccc(OC(F)(F)F)cc3s1)n2C` [Example 108, 1-Methyl-2-(6-trifluoromethoxy-benzothiazol-2-ylamino)-1H-benzoimidazole-5-carboxylic acid (3-methylsulfanyl-propyl)-amide] registered a fold induction at 5 µM of 18.3.

`Cn1c(Nc2nc3ccc(OC(F)(F)F)cc3s2)nc2cc(C(=O)NCC(=O)OC(C)(C)C)ccc21` [Example 91, {[1-Methyl-2-(6-trifluoromethoxy-benzothiazol-2-ylamino)-1H-benzoimidazole-5-carbonyl]-amino}-acetic acid tert-butyl ester] registered a fold induction at 5 µM of 10.1.

On to `Cn1c(Nc2nc3ccc(OC(F)(F)F)cc3s2)nc2cc(C(=O)NCCc3cccc(O)c3)ccc21` [Example 252, 1-Methyl-2-(6-trifluoromethoxy-benzothiazol-2-ylamino)-1H-benzoimidazole-5-carboxylic acid [2-(3-hydroxy-phenyl)-ethyl]-amide], for which the fold induction at 5 µM came to 13.1.

`Cn1c(Nc2nc3ccc(OC(F)(F)F)cc3s2)nc2ccc(CC(N)=O)cc21` [Example 202, 2-[1-Methyl-2-(6-trifluoromethoxy-benzothiazol-2-ylamino)-1H-benzoimidazol-6-yl]-acetamide] had a fold induction at 5 µM of 15.6.

Broadly, the fold induction is the signal under treatment as a multiple of the control signal. Read a low fold induction as a weak induction.
